# Reference: patent US20240166723A1, “MECHANOCHEMICAL GENERATION OF NOVEL COLLAGEN GEL ARCHITECTURES AND SCAFFOLDS” (Yale University, priority 2022, published 2024)
# Tests used:
# MDA-MB-231 cells [1] = assay: Morphology of MDA-MB-231 cells under drug treatment in normal versus thick collagen; assay type: cell-based, human; details: for cell shape and protrusions / cell morphology versus control: normal and thick collagen; for cell shape and protrusions / F-actin accumulation on the cell periphery: day2; for cell morphology versus control: Y27632 30 μM, CK666 50 μM, SMIFH2 50 μM; for effect on cell morphology: normal collagen
# Experimental: (§1) To investigate the specific molecular mechanism behind the elevated migration of MDA-MB-231 cells in thick collagen, the following drugs were tested in these gels: pan-MMP inhibitor GM6001 (20 μM), potent selective Cdc42 inhibitor ML141 (10 μM), ROCK inhibitor Y27632 (30 μM), ARP2/3 inhibitor CK666 (50 μM), formin inhibitor SMIFH2 (50 μM) and Rac1 inhibitors NSC23766 (100 μM) and EHT1864 (20 μM). First cell morphology was traced and quantified. […] The graphic illustration of each morphological index can be found in FIG. 12B.
# (§2) Drugs were reconstituted and stored following manufacturers' recommendations and diluted in culture media to working concentrations. Specifically, 20 μM pan-MMPs inhibitor GM6001(Abcam, ab120845), 30 μM ROCK inhibitor Y27632 (Abcam, ab144494), 10 μM Cdc42 inhibitor ML141 (Calbiochem®217708), 50 μM formin inhibitor SMIFH2 (Abcam, ab218296), 50 μM ARP2/3 inhibitor CK666 (Abcam, ab141231), 100 μM Rac1 inhibitor NSC23766, 20 μM Rac1 inhibitor EHT1864 (Cayman 17258) were used. Fresh media mixed with specific drug were prepared right before experiment and replaced daily. In the drug assays, at least two independent experiments were performed with at least two replicates (technical duplicates) in each experiment.
# In this equation, N is the total step number, n is the n-th step, x,y are the x,y coordinates respectively. For morphology analysis, z projected tilescan images were segmented and analyzed by in-house MATLAB codes. Segmentation performance was validated, with wrong segmentation manually corrected or removed. For difficult automatic segmentation data such as the Y27632 treated condition, manually tracked data were supplemented. The definitions of elongation, compactness, sphericity and shape variance were described in FIG. 4B (Liu, Scientific Reports 2022, 12, 791). A custom ImageJ script was used to derive the colocalization of the YAP/TAZ signal in the nucleus and cytoplasm. Specifically, the central plane of each cell is first extracted. DAPI and YAP/TAZ channels are then used to produce masks for cell nucleus and cell body respectively. Nucleus YAP/TAZ is calculated by averaging YAP/TAZ intensity within the nucleus mask and cytoplasmic YAP/TAZ is calculated by averaging YAP/TAZ intensity outside the nucleus mask but within cell body. To note, only YAP/TAZ of focal plane is used for average calculation. For thick collagen bundle size measurement, “Analyze Particle” function from Fiji was used.
# [2] = test system: PDGF-induced lamellipodia formation; details: cited from earlier work
# MDA-MB-231 cells [3] = assay: Migration inhibition drug assay: MDA-MB-231 cell migration in 3D collagen; assay type: cell-based, human; details: thick collagen, day0 and day1; GM6001 20 μM, Y27632 30 μM, ML141 10 μM, SMIFH2 50 μM, NSC23766 100 μM
# Experimental: as §1
# Apart from morphology signatures, cell migration was also tracked (FIG. 5A-C, FIG. 13A-B and FIG. 18A). […] GM6001-treated MDA-MB-231 cells in thick collagen migrated as actively as the DMSO control, both increased compared to cells in normal collagen. […] However, the interpretation of NSC23766 was confounded by the poor performance of another […]. NSC23766 binds directly to Rac1 and blocks the interaction between GEF Trio or Tiam (Gao et al., Proceedings Of The National Academy Of Sciences Of The United States Of America, 2004, 101, 7618-7623). EHT1864 binds to Rac1 but it is an allosteric inhibitor for guanine association. […] The differential preference between MDA-MB-231 cells for a stiff substrate and metastatic ovarian cancer cells (MOCC) for compliant substrate for migration (McGrail et al., Journal of Cell Science 2014, 127, 2621-2626); McGrail et al., Physical Biology 2015, 12, 026001) may be dictated by Rac1 and […], respectively.
# as §2
# Imaging was performed using a Leica SP8 confocal microscope. Time-lapse imaging (XYZT mode) was taken with a 20× objective (0.75 NA), with time interval set to 3 minutes or 6 minutes and z-step size set to 2 μm. Day0 time-lapse imaging was acquired between around 0hr to 12 hrs post embedding cells into gels. Day1 time-lapse imaging was acquired between around 24 hrs to 36 hrs post gel-embedment. Overview tilescan images were taken at day1, day2 or day5 respectively.
# To track cell migration, XYZT data were first reduced in dimensions by conducting standard deviation projection along the z-axis. The XYT data were then processed by TrackMate in Fiji and produced cell trajectories. Trajectories were exported to MATLAB to calculate average speed and mean squared displacement. Average speed specifically refers to the mean of the absolute value of the net displacement of the cell center per hour. Mean squared displacements were computed with the following equation (Gorelik, Nature Protocols 2014, 9, 1931-1943): […]
# OVCA429 = details: 2D conditions; cited from earlier work
# SKOV3ip = details: 2D conditions; cited from earlier work
# [4] = test system: human pancreatic cancer cells PANC-1; details: aligned matrix fiber; cited from earlier work
# [5] = test system: D1 murine mesenchymal stem cells (MSCs); assay: MSC migration in collagen gels, time-lapse confocal cell tracking; details: MSCs treated with inhibitors of myosin-based contractility, day 6
# Experimental: To determine how island architecture modulates stem cell behavior, DI MSC's were seeded in gels that were adherent to polydopamine covered glass (FIG. 37). Polydopamine allows for collagen to remain anchored to surfaces for imaging and prevents total compaction of the gel during experiments (Park et al., ACS Applied Materials & Interfaces 2019, 11, 23919-23925). MSC migration in gels were then visualized. To capture cell migration in these gels, a stable LifeAct-RFP dye was transduced into MSCs and then these encapsulated cells were imaged with time-lapse confocal fluorescence microscopy. Cell tracking analysis was performed to determine migration metrics (FIG. 22A). The cells both 1 day after seeding and 6 days after seeding were imaged for 12 hour timelapses. […] After 6 days of culture, differences in migratory behavior were observed between MSCs cultured in different island gels (FIG. 22B).
# D1 MSCs or D1 MSC-LifeActRFP cells were mixed with the collagen solution prior to gelation to achieve a final cell concentration of 15000 cells/ml. Cells were cultured in 50%/50% mixture of the osteogenic induction medium and adipogenic induction medium (differentiation medium). The differentiation medium contained 50 μg/ml L-ascorbic acid (MilliporeSigma), 10 mM β-glycerophosphate (MilliporeSigma), and 0.1 μM dexamethasone (MilliporeSigma) in the DMEM growth medium.
# MSC time lapses were performed in 12 well glass bottom dishes which had been polydopamine coated. 12 hour time lapses were taken on Day 1 and Day 6. Automatic cell segmentation was obtained using Imaris (Oxford Instruments). Manual filtering was done to determine which cells were to be used for downstream analysis. From these segmentations, cell movement was tracked and metrics such as mean speed, sphericity, and migration track length over the timelapse were obtained. Mean speed is defined as the average of instantaneous speeds between timepoints.
# [6] = test system: chronic lymphocytic leukemia cells; details: cited from earlier work
SMILES,cell shape and protrusions (MDA-MB-231 cells [1]),cell morphology versus control (MDA-MB-231 cells [1]; NSC23766 100 μM),effect on cell morphology (MDA-MB-231 cells [1]),MDA-MB-231 cell migration (MDA-MB-231 cells [3]),cell migration track length [5],also measured
Cc1[nH]c2ccccc2c1CCNC(=O)c1ccccc1F [CK666],elongated and stretched,distinct morphologies compared with control,,,,
O=c1cc(CN2CCOCC2)occ1OCCCCCSc1ccnc2cc(C(F)(F)F)ccc12 [EHT1864],,,all cells are round,,,PDGF-induced lamellipodia formation [2]: can inhibit PDGF-induced lamellipodia formation
CNC(=O)[C@H](Cc1c[nH]c2ccccc12)NC(=O)[C@@H](CC(=O)NO)CC(C)C [GM6001],,,all cells are round,failed to inhibit MDA-MB-231 cell migration,,
COc1ccc(C2CC(c3ccccc3)=NN2c2ccc(S(N)(=O)=O)cc2)cc1 (centres unmarked) [ML141],,,all cells are round,did not show significant inhibition,,inhibition of migration (OVCA429): does inhibit; inhibition of migration (SKOV3ip): does inhibit; cell movement [4]: moved faster in aligned matrix fiber regardless of ML141 treatment
O=S(=O)(c1cccc2c(I)cccc12)N1CCCNCC1 [ML-7],,,,,decreases in cell migration track length,
CCN(CC)CCCC(C)Nc1nc(C)cc(Nc2ccc3nc(C)cc(N)c3c2)n1 (centres unmarked) [NSC23766],,distinct morphologies compared with control,all cells are round,significantly reduced MDA-MB-231 cell migration,decreases in cell migration track length,"proliferation [6]: proliferation arrest; cell movement [4]: inhibited cell movement, regardless of collagen fiber orientation; cell size (MDA-MB-231 cells [1]; NSC23766 100 μM): smaller than most other drug conditions; F-actin accumulation on the cell periphery (MDA-MB-231 cells [1]): clearly visible"
O=C1NC(=S)N(c2cccc(Br)c2)C(=O)/C1=C/c1ccco1 [SMIFH2],round and lacked cell peripheral fluctuations,distinct morphologies compared with control,all cells are round,significantly reduced MDA-MB-231 cell migration,,F-actin accumulation on the cell periphery (MDA-MB-231 cells [1]): lacked F-actin accumulation on the cell periphery
C[C@@H](N)[C@H]1CC[C@H](C(=O)Nc2ccncc2)CC1 [Y27632],extremely long cell protrusions,distinct morphologies compared with control,,significantly reduced MDA-MB-231 cell migration,decreases in cell migration track length,
